What was measured:
[1] = target: T1, 72 kDa type IV collagenase (Homo sapiens, UniProt P08253); assay: Inhibition of MMP-2 (unknown origin) using Mca-Pro-Leu-Gly-Leu-Dpa-Ala-Arg-NH2 as substrate by fluorimetric assay
[2] = target: T2, Matrix metalloproteinase-9 (Homo sapiens, UniProt P14780); assay: Inhibition of MMP-9 (unknown origin) using Mca-Pro-Leu-Gly-Leu-Dpa-Ala-Arg-NH2 as substrate by fluorimetric assay
[3] = target: T2, Matrix metalloproteinase-9; assay: Inhibition of MMP-9 (unknown origin)
Interstitial collagenase [4] = target: T3, Interstitial collagenase (Homo sapiens, UniProt P03956); assay: Inhibition of MMP-1 (unknown origin)
T3 sequence (P03956 whole entry): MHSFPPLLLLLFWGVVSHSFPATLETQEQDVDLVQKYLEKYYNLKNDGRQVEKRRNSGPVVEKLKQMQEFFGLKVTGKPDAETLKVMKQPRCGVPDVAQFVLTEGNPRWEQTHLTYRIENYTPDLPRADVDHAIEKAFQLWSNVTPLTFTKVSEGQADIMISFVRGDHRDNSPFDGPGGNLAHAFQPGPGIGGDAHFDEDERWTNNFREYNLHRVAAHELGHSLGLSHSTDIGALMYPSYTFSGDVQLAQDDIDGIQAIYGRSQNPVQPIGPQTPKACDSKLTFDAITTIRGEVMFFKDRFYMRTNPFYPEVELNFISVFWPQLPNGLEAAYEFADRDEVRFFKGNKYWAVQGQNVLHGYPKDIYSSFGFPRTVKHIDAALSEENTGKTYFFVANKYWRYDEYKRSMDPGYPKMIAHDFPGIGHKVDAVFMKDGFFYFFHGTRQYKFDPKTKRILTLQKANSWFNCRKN

Stromelysin-1 [5] = target: T4, Stromelysin-1 (Homo sapiens, UniProt P08254); assay: Inhibition of MMP-3 (unknown origin)
T4 sequence (P08254 whole entry): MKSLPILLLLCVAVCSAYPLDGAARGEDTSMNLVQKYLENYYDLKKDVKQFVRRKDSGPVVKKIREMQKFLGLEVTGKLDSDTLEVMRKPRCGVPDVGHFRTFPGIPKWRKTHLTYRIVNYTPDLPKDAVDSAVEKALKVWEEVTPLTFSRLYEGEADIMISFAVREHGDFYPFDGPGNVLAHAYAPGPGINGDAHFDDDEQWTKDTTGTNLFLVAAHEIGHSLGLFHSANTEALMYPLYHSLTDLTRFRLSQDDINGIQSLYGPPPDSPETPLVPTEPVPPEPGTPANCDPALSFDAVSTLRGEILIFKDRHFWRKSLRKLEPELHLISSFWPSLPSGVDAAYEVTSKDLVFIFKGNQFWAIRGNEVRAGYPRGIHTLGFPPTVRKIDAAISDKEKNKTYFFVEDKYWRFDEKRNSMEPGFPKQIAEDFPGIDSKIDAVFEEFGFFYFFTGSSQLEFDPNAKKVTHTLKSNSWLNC

[6] = target: T5, Matrix metalloproteinase-14 (Homo sapiens, UniProt P50281); assay: Inhibition of MMP-14 (unknown origin)
Neutrophil collagenase [7] = target: T6, Neutrophil collagenase (Homo sapiens, UniProt P22894); assay: Inhibition of MMP-8 (unknown origin)
T6 sequence (P22894 whole entry): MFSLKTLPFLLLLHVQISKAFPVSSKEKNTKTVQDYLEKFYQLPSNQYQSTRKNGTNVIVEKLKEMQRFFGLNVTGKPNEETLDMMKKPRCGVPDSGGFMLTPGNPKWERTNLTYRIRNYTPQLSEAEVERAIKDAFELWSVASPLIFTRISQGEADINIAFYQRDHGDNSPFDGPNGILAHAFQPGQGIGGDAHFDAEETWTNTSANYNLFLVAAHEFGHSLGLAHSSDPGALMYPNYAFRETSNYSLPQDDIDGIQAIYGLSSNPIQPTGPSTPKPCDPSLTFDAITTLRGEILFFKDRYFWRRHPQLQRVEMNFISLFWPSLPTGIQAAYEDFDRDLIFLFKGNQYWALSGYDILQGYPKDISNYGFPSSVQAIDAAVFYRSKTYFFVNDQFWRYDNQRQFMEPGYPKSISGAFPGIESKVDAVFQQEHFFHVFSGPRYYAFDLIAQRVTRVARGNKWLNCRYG

Interstitial collagenase [8] = target: T3, Interstitial collagenase; assay: Inhibition of human MMP-1 expressed in Escherichia coli BL21(DE3) using Mca-Pro-Leu-Gly-Leu-Dpa-Ala-Arg-NH2 as substrate preincubated for 30 mins followed by susbstrate addition by photon-counter spectrophotometer analysis
[9] = target: T1, 72 kDa type IV collagenase; assay: Inhibition of human MMP-2 expressed in Escherichia coli BL21(DE3) using Mca-Pro-Leu-Gly-Leu-Dpa-Ala-Arg-NH2 as substrate preincubated for 30 mins followed by susbstrate addition by photon-counter spectrophotometer analysis
Stromelysin-1 [10] = target: T4, Stromelysin-1; assay: Inhibition of human MMP-3 expressed in Escherichia coli BL21(DE3) using Mca-Pro-Leu-Gly-Leu-Dpa-Ala-Arg-NH2 as substrate preincubated for 30 mins followed by susbstrate addition by photon-counter spectrophotometer analysis
Matrilysin [11] = target: T7, Matrilysin (Homo sapiens, UniProt P09237); assay: Inhibition of human MMP-7 expressed in Escherichia coli BL21(DE3) using Mca-Pro-Leu-Gly-Leu-Dpa-Ala-Arg-NH2 as substrate preincubated for 30 mins followed by susbstrate addition by photon-counter spectrophotometer analysis
T7 sequence (P09237 whole entry): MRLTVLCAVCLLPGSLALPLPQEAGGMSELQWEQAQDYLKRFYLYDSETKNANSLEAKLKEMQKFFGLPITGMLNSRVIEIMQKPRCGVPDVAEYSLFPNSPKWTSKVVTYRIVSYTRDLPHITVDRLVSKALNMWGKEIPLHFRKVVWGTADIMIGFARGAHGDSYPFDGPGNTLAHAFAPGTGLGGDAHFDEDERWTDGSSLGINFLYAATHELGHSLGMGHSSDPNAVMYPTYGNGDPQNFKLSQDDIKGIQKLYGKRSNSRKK

Neutrophil collagenase [12] = target: T6, Neutrophil collagenase; assay: Inhibition of human MMP-8 expressed in Escherichia coli BL21(DE3) using Mca-Pro-Leu-Gly-Leu-Dpa-Ala-Arg-NH2 as substrate preincubated for 30 mins followed by susbstrate addition by photon-counter spectrophotometer analysis
[13] = target: T2, Matrix metalloproteinase-9; assay: Inhibition of human MMP-9 expressed in Escherichia coli BL21(DE3) using Mca-Pro-Leu-Gly-Leu-Dpa-Ala-Arg-NH2 as substrate preincubated for 30 mins followed by susbstrate addition by photon-counter spectrophotometer analysis
Stromelysin-2 [14] = target: T8, Stromelysin-2 (Homo sapiens, UniProt P09238); assay: Inhibition of human MMP-10 expressed in Escherichia coli BL21(DE3) using Mca-Pro-Leu-Gly-Leu-Dpa-Ala-Arg-NH2 as substrate preincubated for 30 mins followed by susbstrate addition by photon-counter spectrophotometer analysis
T8 sequence (P09238 whole entry): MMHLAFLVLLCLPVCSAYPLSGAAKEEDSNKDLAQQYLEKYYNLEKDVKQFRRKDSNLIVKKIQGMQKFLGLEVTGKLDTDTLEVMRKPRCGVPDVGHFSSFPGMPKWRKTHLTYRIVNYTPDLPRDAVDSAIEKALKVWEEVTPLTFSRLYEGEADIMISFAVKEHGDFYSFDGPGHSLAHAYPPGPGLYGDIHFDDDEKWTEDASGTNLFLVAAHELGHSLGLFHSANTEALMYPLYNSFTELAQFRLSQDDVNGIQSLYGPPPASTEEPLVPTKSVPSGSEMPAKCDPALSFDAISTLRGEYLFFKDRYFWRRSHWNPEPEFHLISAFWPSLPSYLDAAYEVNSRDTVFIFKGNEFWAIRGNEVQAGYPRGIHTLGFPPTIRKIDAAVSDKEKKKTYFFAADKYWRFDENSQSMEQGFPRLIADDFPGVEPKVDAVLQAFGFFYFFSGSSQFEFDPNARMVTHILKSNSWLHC

Collagenase 3 [15] = target: T9, Collagenase 3 (Homo sapiens, UniProt P45452); assay: Inhibition of human MMP-13 expressed in Escherichia coli BL21(DE3) using Mca-Pro-Leu-Gly-Leu-Dpa-Ala-Arg-NH2 as substrate preincubated for 30 mins followed by susbstrate addition by photon-counter spectrophotometer analysis
[16] = target: T5, Matrix metalloproteinase-14; assay: Inhibition of human MMP-14 expressed in Escherichia coli BL21(DE3) using Mca-Pro-Leu-Gly-Leu-Dpa-Ala-Arg-NH2 as substrate preincubated for 30 mins followed by susbstrate addition by photon-counter spectrophotometer analysis
[17] = target: T1, 72 kDa type IV collagenase
Collagenase 3 [18] = target: T9, Collagenase 3
Description: Inhibition of MMP-13 (unknown origin)

Matrilysin [19] = target: T7, Matrilysin; assay: Inhibition of MMP-7 (unknown origin)
[20] = target: Macrophage metalloelastase (Homo sapiens, UniProt P39900); assay: Inhibition of MMP-12 (unknown origin)
Macrophage metalloelastase, sequence (P39900 whole entry): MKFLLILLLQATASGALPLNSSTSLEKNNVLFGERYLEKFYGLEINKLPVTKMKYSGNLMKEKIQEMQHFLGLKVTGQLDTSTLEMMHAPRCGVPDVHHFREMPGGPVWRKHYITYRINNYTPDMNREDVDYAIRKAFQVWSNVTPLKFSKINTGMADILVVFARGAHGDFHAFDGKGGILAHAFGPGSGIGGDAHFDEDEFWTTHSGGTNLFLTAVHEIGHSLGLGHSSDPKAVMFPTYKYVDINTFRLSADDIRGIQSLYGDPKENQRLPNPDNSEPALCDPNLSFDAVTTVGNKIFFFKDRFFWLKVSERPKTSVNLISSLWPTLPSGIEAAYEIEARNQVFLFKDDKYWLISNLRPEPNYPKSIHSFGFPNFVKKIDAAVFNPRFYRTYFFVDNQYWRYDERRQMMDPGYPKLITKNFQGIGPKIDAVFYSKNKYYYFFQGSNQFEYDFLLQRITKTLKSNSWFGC

[21] = target: T1, 72 kDa type IV collagenase; assay: Inhibition of MMP-2 (unknown origin) catalytic activity using Ac-PLG-[2-mercapto-4-methylpentanoyl]-LG-OC2H5 as substrate and measured upto 30 mins by microplate reader analysis
[22] = target: T2, Matrix metalloproteinase-9; assay: Inhibition of MMP-9 (unknown origin) catalytic activity using Ac-PLG-[2-mercapto-4-methylpentanoyl]-LG-OC2H5 as substrate and measured upto 30 mins by microplate reader analysis
Stromelysin-2 [23] = target: T8, Stromelysin-2; assay: Inhibition of MMP-10 (unknown origin)

T1 sequence (P08253 whole entry): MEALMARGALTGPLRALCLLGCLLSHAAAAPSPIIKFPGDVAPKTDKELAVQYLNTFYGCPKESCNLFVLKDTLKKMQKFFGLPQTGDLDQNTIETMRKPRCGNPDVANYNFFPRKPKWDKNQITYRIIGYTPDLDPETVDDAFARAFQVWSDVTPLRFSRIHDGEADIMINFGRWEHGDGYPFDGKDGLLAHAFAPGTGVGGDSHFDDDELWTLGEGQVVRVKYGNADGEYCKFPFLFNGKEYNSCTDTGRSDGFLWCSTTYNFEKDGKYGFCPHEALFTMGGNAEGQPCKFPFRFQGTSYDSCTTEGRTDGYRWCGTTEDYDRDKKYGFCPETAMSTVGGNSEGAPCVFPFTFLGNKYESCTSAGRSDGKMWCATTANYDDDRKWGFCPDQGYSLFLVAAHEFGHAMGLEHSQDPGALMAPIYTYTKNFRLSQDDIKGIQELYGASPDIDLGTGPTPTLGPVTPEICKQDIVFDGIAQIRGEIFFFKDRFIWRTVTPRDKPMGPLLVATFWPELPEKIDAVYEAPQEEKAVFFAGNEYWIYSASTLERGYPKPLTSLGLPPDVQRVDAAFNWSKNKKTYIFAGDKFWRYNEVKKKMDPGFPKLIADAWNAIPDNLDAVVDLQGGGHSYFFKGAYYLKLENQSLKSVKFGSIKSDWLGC
T2 sequence (P14780 whole entry): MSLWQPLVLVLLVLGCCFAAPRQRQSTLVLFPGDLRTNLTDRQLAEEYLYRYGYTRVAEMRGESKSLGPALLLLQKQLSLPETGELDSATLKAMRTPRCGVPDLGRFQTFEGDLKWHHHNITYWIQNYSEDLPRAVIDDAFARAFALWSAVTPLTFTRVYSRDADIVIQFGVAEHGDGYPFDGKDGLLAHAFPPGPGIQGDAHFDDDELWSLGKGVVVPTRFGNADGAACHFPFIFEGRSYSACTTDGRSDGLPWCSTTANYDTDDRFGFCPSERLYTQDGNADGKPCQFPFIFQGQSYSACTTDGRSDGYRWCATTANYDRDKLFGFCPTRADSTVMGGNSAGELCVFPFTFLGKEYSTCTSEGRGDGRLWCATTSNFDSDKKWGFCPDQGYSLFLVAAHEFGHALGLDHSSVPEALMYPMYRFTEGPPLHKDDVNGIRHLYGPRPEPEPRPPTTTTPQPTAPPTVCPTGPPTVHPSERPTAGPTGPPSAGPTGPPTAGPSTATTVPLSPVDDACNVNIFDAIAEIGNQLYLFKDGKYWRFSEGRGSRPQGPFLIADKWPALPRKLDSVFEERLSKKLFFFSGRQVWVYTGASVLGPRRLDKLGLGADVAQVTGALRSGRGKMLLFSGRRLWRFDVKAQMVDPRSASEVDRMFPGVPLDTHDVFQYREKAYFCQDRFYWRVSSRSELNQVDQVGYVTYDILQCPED

NCCCCC(NS(=O)(=O)c1ccc(-c2ccccc2)cc1)C(=O)O (centres undefined)
IC50 [1]: 900 nM
IC50 [2]: 40000 nM

CCNC(=O)CCC(NS(=O)(=O)c1ccc(-c2ccccc2)cc1)C(=O)O (centres undefined)
IC50 [3]: 1.19 nM

CC(=O)Nc1ccc(Oc2ccc(S(=O)(=O)CC3CS3)cc2)cc1 (centres undefined)
Ki (Interstitial collagenase [4]): > 154000 nM
Ki (Stromelysin-1 [5]): > 188000 nM
Ki [6]: > 230000 nM

CN1C(=O)N(C[C@H](C(=O)NO)[C@H](CC2CCCC2)C(=O)N2CCCCC2)C(=O)C1(C)C
Ki (Neutrophil collagenase [7]): 4 nM

NC(=O)[C@H](CCC(=O)O)NC(=O)[C@@H](CCC(=O)O)NC(=O)CCc1ccc(-c2ccccc2)cc1
Ki (Interstitial collagenase [8]): > 100000 nM
Ki [9]: 445 nM
Ki (Stromelysin-1 [10]): 6700 nM
Ki (Matrilysin [11]): 24700 nM
Ki (Neutrophil collagenase [12]): 226 nM
Ki [13]: 1090 nM
Ki (Stromelysin-2 [14]): 1110 nM
Ki (Collagenase 3 [15]): 689 nM
Ki [16]: 5900 nM

CNC(=O)[C@@H](NC(=O)[C@H](CC(C)C)NC(=O)[C@H](S)CCN1C(=O)N(C)C(C)(C)C1=O)C(C)(C)C
IC50 (Interstitial collagenase [4]): 25 nM
IC50 [17]: 41 nM
IC50 (Stromelysin-1 [5]): 157 nM
IC50 [3]: 25 nM
IC50 (Collagenase 3 [18]): 4 nM

O=C(NO)C(Cc1ccccc1)NS(=O)(=O)c1ccc(-c2cn(-c3ccc(-c4ccccc4)cc3)nn2)cc1 (centres undefined)
IC50 (Interstitial collagenase [4]): > 10000 nM
IC50 (Stromelysin-1 [5]): 50 nM
IC50 (Matrilysin [19]): > 500 nM
IC50 (Neutrophil collagenase [7]): > 500 nM
IC50 [20]: 3.8 nM
IC50 (Collagenase 3 [18]): < 5 nM
IC50 [6]: 556 nM
IC50 [21]: 1.3 nM
IC50 [22]: 5.54 nM
IC50 (Stromelysin-2 [23]): 181 nM

CNC(=O)[C@@H](NC(=O)[C@H](CC(C)C)[C@H](O)C(=O)NO)C(C)(C)C
IC50 [6]: 1.8 nM

O=C(NO)C1(S(=O)(=O)c2ccc(-n3cc(-c4ccc(-c5ccccc5)cc4)nn3)cc2)CCOCC1
IC50 (Interstitial collagenase [4]): > 1000 nM
IC50 (Stromelysin-1 [5]): 17.2 nM
IC50 (Matrilysin [19]): > 100 nM
IC50 (Neutrophil collagenase [7]): > 100 nM
IC50 [20]: 3.2 nM
IC50 (Collagenase 3 [18]): 0.9 nM
IC50 [6]: 65 nM
IC50 [21]: 1.4 nM
IC50 [22]: 98 nM
IC50 (Stromelysin-2 [23]): 51 nM

COc1ccc(S(=O)(=O)N(Cc2ccccc2)[C@@H](C(=O)NO)C(C)C)cc1
IC50 (Stromelysin-1 [5]): 13 nM
IC50 [20]: 7.7 nM

COc1ccc(-c2ccc(CN3C(C(=O)NO)CCS3(=O)=O)cc2)cc1 (centres undefined)
Ki (Interstitial collagenase [4]): 4950 nM

O=C(NO)C1(S(=O)(=O)c2ccc(Oc3ccc(Cl)cc3)cc2)CCOCC1
Ki [17]: 0.22 nM
Ki (Stromelysin-1 [5]): 9.3 nM
Ki (Matrilysin [19]): 1200 nM

O=C(O)CS(=O)(=O)c1ccc(-c2ccccc2)cc1
IC50 (Interstitial collagenase [4]): 380000 nM
IC50 [17]: 12500 nM
IC50 (Stromelysin-1 [5]): 364000 nM
IC50 (Matrilysin [19]): 14200 nM
IC50 [3]: 212000 nM
IC50 (Collagenase 3 [18]): 101000 nM
IC50 [6]: 165 nM

NC(=O)CCC(NS(=O)(=O)c1ccc(-c2ccccc2)cc1)C(=O)O (centres undefined)
IC50 [3]: 3.57 nM

CN(C)c1ccc(O)c2c1C[C@H]1C[C@H]3[C@H](N(C)C)C(O)=C(C(N)=O)C(=O)[C@@]3(O)C(O)=C1C2=O [MINOCYCLINE]
IC50 (Stromelysin-1 [5]): 290000 nM
IC50 (Matrilysin [19]): 125000 nM
IC50 [3]: 180000 nM

O=C(NCCCCC(NS(=O)(=O)c1ccc(-c2ccccc2)cc1)C(=O)O)OCc1ccccc1 (centres undefined)
IC50 [1]: 50 nM
IC50 [2]: 1800 nM

O=C(NCCCCC(NS(=O)(=O)c1ccc(-c2ccc(Cl)cc2)cc1)C(=O)O)OCc1ccccc1 (centres undefined)
IC50 [1]: 5 nM
IC50 [2]: 800 nM

O=C(CS(=O)(=O)c1ccc(-c2ccccc2)cc1)NO
IC50 (Interstitial collagenase [4]): 1800 nM
IC50 [17]: 6 nM
IC50 (Stromelysin-1 [5]): 200 nM
IC50 (Matrilysin [19]): 24 nM
IC50 [3]: 140 nM
IC50 (Collagenase 3 [18]): 9.8 nM
IC50 [6]: 376 nM

O=C(CCC(NS(=O)(=O)c1ccc(-c2ccccc2)cc1)C(=O)O)NCc1ccccc1 (centres undefined)
IC50 [3]: 0.704 nM

CO[C@H](C(=O)NO)[C@@H](CC(C)C)C(=O)N[C@H](C(=O)Nc1ccccn1)C(C)(C)C [SOLIMASTAT]
IC50 [17]: 80 nM
IC50 (Matrilysin [19]): 5 nM
IC50 [3]: 70 nM

COc1ccc(-c2cn(-c3ccc(S(=O)(=O)C4(C(=O)NO)CCOCC4)cc3)nn2)cc1
IC50 (Interstitial collagenase [4]): > 1000 nM
IC50 (Stromelysin-1 [5]): 9.6 nM
IC50 (Matrilysin [19]): 70 nM
IC50 (Neutrophil collagenase [7]): 6.1 nM
IC50 [20]: 1.2 nM
IC50 (Collagenase 3 [18]): 1.4 nM
IC50 [6]: 8.2 nM
IC50 [21]: 0.3 nM
IC50 [22]: 11.3 nM
IC50 (Stromelysin-2 [23]): 7.8 nM

O=C(C[C@@H](CSc1ccccc1)C(=O)O)c1ccc(-c2ccc(Cl)cc2)cc1
Ki (Interstitial collagenase [4]): > 5000 nM
Ki [17]: 11 nM
Ki [3]: 301 nM
Ki (Collagenase 3 [18]): 147000 nM

C=CC[C@H](C(=O)NO)C(CC(C)C)C(=O)N[C@@H](Cc1ccccc1)C(=O)NC (some centres undefined)
IC50 (Interstitial collagenase [4]): 10 nM
Ki (Interstitial collagenase [4]): 8 nM
IC50 [17]: 5 nM
Ki [17]: 4 nM
IC50 (Stromelysin-1 [5]): 30 nM
Ki (Stromelysin-1 [5]): 30 nM
IC50 (Matrilysin [19]): 30 nM
Ki (Matrilysin [19]): 60 nM
IC50 (Neutrophil collagenase [7]): 3 nM
Ki (Neutrophil collagenase [7]): 3 nM
IC50 [3]: 3 nM
Ki [3]: 3 nM
Ki [20]: 5 nM
Ki (Collagenase 3 [18]): 7 nM
Ki [6]: 10 nM

CC(C)ON([C@@H](CCNC(=O)OCc1ccccc1)C(=O)NO)S(=O)(=O)c1ccc(-c2ccccc2)cc1
IC50 (Interstitial collagenase [4]): > 3000 nM
IC50 [17]: 0.41 nM
IC50 (Stromelysin-1 [5]): 130 nM
IC50 (Matrilysin [19]): 10000 nM
IC50 [3]: 16 nM
IC50 [6]: 7.7 nM

Reference: ChEMBL document CHEMBL5113513, “Selective Inhibitors of Medium-Size S1' Pocket Matrix Metalloproteinases: A Stepping Stone of Future Drug Discovery” (J Med Chem, 2022)
